From US20250360187A1, “HEPCIDIN MIMETICS FOR TREATMENT OF SICKLE CELL DISEASE” (Protagonist Therapeutics, Inc., priority 2022, published 2025)
“Also recorded” adds a separate entry of the source. Where a SMILES comes first, the peptide text is derived from it.

Test system: Townes SCD mice
Experiment: Efficacy study of hepcidin mimetics in a mouse model of sickle cell disease (CBC, serum hemolysis biomarkers, spleen and liver weights)
Format: in vivo
Conditions: for % Retics / Abs Retics / HCT / HGB / MCH / MCHC / MCV / RBC / LDH / Total bilirubin: 4 weeks, mean ± SD; for LDH / Total bilirubin: serum
Method: Compound 46, a hepcidin mimetic, was administered subcutaneously at 1.0 mg/kg (group 3, N=9) or 2.5 mg/kg (group 4, N=9) in Townes SCD mice. 36 Townes SCD and 6 129S1/SvlmJ (wild-type), female mice, 5 weeks old upon delivery. A control group of wild-type mice (groups 1, N=6) was treated with vehicle as well as another SCD mice (group 2, N=9). All mice were dosed three times per week (TIW). All mice were maintained on an iron-adjusted diet (TD.140258, 35 ppm iron) throughout the study. Collections and necropsies were performed 24 hours post-last dose of compound or vehicle. After 4 weeks on study, animals from each group were euthanized, EDTA whole blood collected for CBC and serum was collected for hemolysis biomarker analysis. Spleens and livers were weighed at terminus. Liver, spleen, kidney, heart and brain were collected for future analysis. Serum and urine were collected to analyze chemistry markers, such as bilirubin, LDH (lactate dehydrogenase), haptoglobin, urine creatinine, urine total protein and urine urea nitrogen.
As shown in FIG. 4A and FIG. 4B, reticulocytes were counted both with the automated analyzer as well as manually from a new methylene blue stained blood smear by counting the number of positive stained cells encountered in 500 erythrocytes and calculating the percentage.

[1] = SCD mice, compared to vehicle, across doses
[2] = Townes SCD mice, Dose 1 (1.0 mg/kg s.c. TIW)
[3] = Townes SCD mice, Dose 2.5 (2.5 mg/kg s.c. TIW)

CCCCCCCCCCCCCCCC(=O)N[C@@H](CCC(=O)NCCCC[C@@H]1NC(=O)[C@H]([C@@H](C)CC)NC(=O)[C@@H](NC(=O)[C@@H]2CCCN2C(=O)[C@H](Cc2ccccc2)NC(=O)[C@H](Cc2cnc[nH]2)NC(=O)[C@@H](NC(=O)[C@H](CCC(=O)O)NC(=O)CC(C)C)[C@@H](C)O)CSSC[C@@H](C(=O)N[C@@H](CCCCN)C(N)=O)NC(=O)CNC(=O)[C@H](CCCCN)NC(=O)[C@H](CO)NC(=O)[C@H](CCCNC(=N)N)NC(=O)[C@@H]2CCCN2C(=O)[C@H](CCC(=O)O)NC(=O)[C@H](Cc2ccccc2)NC1=O)C(=O)O [Compound 46, Isovaleric_Acid-ETHFPCI(K(IsoGlu_Palm))FEPRSKGCK-NH2] (HELM PEPTIDE1{[CC(C)CC(=O)[*:2]].E.T.H.F.P.C.I.K.F.E.P.R.S.K.G.C.K.[am]}|PEPTIDE2{[CCCCCCCCCCCCCCCC(=O)[*:2]].[gGlu]}$PEPTIDE1,PEPTIDE2,9:R3-2:R2|PEPTIDE1,PEPTIDE1,7:R3-17:R3$$$V2.0)
RBC count (in words) (SCD mice, 2.5 mg/kg dose): significantly reduced
Percent of reticulocytes (in words) (SCD mice, 2.5 mg/kg dose, compared to vehicle control): decreased percent of reticulocytes significantly
Mean corpuscular hemoglobin concentration (MCHC) (in words) (SCD mice, 2.5 mg/kg, compared to vehicle control): significant increase in MCHC
Hematocrit (HCT) (in words) (SCD mice, across doses): significant reduction of HCT in a dose dependent manner
Lymphocyte count (in words) (SCD mice, across doses): significant WBC and lymphocyte reduction in a dose dependent manner; also recorded: alleviated elevated white blood cell (WBC) and lymphocytes counts
Neutrophil count (in words) (SCD mice, across doses): significantly decreased neutrophil count in a dose dependent manner; also recorded: alleviated elevated neutrophil and monocyte counts
Serum lactate dehydrogenase (LDH) (in words) (SCD mice, across doses): significantly reduced both parameters in a dose dependent manner
Serum total bilirubin (in words) (SCD mice, across doses): significantly reduced both parameters in a dose dependent manner
White blood cell (WBC) count (in words) (SCD mice, across doses): significant WBC and lymphocyte reduction in a dose dependent manner; also recorded: alleviated elevated white blood cell (WBC) and lymphocytes counts
Mean corpuscular volume (MCV) (in words) (SCD mice, across doses, compared to the vehicle group): significant reduction of MCV in a dose dependent manner
Hgb level (in words) (SCD mice, all three dose groups): significantly reduced in all three dose groups
Mean corpuscular hemoglobin (MCH) (in words) (SCD mice, compared to vehicle control): significant reduction in MCH
Liver to body weight ratios (in words) [1]: significantly lower in a dose dependent manner
Liver weight / liver size (in words) [1]: significantly lower in a dose dependent manner; also recorded: reduces liver size
Spleen to body weight ratios (in words) [1]: significantly and dose-dependently lower
Spleen weights / spleen size (in words) [1]: significantly and dose-dependently lower; also recorded: reduces spleen size
Monocyte count (in words) (Townes SCD mice): alleviated elevated neutrophil and monocyte counts
% Retics [2]: 65.78%
Abs Retics [2]: 2612 K/uL
HCT [2]: 29.62%
HGB [2]: 5.89 g/dL
MCH [2]: 9.89 pg
MCHC [2]: 19.82 g/dL
MCV [2]: 50.11 fL
RBC [2]: 5.94 M/uL
% Retics [3]: 50.33%
Abs Retics [3]: 1195 K/uL
HCT [3]: 16.27%
HGB [3]: 4.39 g/dL
MCH [3]: 9.82 pg
MCHC [3]: 23.22 g/dL
MCV [3]: 42.56 fL
RBC [3]: 4.49 M/uL
LDH [2]: 610.6 U/L
Total bilirubin [2]: 2.16 mg/dL
LDH [3]: 372.3 U/L
Total bilirubin [3]: 1.13 mg/dL
